Reference: publication PMC10440361 (Current Research in Pharmacology and Drug Discovery, 2023)
Read-outs that look alike come from different tables or passages of the source.

Key:
[1] = test system: adult male cynomolgus monkeys; type: in vivo; details: for average increase in MAP between 30 min and 5 h: vehicle 3.5 mmHg; for maximum MAP values (increase from baseline) / maximum Δ MAP: telemetered cynomolgus monkeys; for maximum MAP values (increase from baseline): IV vehicle 22.2 ± 3.5 mmHg; for time for which increases from baseline in MAP above 20 mmHg were sustained: average; for average increase in MAP between 30 min and 5 h after administration: vehicle SC 0.8 mmHg; for maximum Δ MAP: vehicle SC 25.9 ± 1.6 mmHg
adult male Wistar rats = assay: Skin blood flow; type: in vivo; details: anesthetized rats, IV infusion; discussion statement
[2] = test system: adult male Sprague Dawley rats; assay: Arterial blood pressure by telemetry after SC administration in rats; type: in vivo; details: conscious telemetered Sprague Dawley rats, n=6
human V1a receptors = details: read-out: EC50 for human V1a; ref Croston et al., 2023; cited from earlier work
human V2 receptors = details: ref Croston et al., 2023, cited from earlier work
rat V2 receptor = details: cell-based functional assays; ref Croston et al., 2023; cited from earlier work

N-[N-(N-glycylglycyl) glycyl]-8-L-lysinevasopressin [Terlipressin]
time past which MAP increases from baseline above 20 mmHg were not sustained ([1]; monkeys, IV bolus 0.03 mg/kg, on average): ≤ 30 min | average increase in MAP between 30 min and 5 h ([1]; monkeys, IV bolus 0.03 mg/kg): 6.0 mmHg | time past which MAP increases from baseline above 20 mmHg were not sustained ([1]; monkeys, IV bolus 0.09 mg/kg, on average): ≤ 30 min | average increase in MAP between 30 min and 5 h ([1]; monkeys, IV bolus 0.09 mg/kg): 5.8 mmHg | time past which MAP increases from baseline above 20 mmHg were not sustained ([1]; monkeys, IV bolus 0.17 mg/kg, on average): ≤ 75 min | average increase in MAP between 30 min and 5 h ([1]; monkeys, IV bolus 0.17 mg/kg): 14.6 mmHg | time past which MAP increases from baseline above 20 mmHg were not sustained ([1]; monkeys, IV bolus 0.34 mg/kg, on average): ≤ 90 min | average increase in MAP between 30 min and 5 h ([1]; monkeys, IV bolus 0.34 mg/kg): 14.7 mmHg | time after administration by which ΔMAP was negligible ([1]; monkeys, IV bolus, all treatment groups 0.03 to 0.34 mg/kg, on average): ≤ 150 min | maximum MAP values (increase from baseline) ([1]; IV bolus 0.03 mg/kg): 29.6 ± 3.6 mmHg | maximum MAP values (increase from baseline) ([1]; IV bolus 0.09 mg/kg): 29.9 ± 6.2 mmHg | maximum MAP values (increase from baseline) ([1]; IV bolus 0.17 mg/kg): 50.8 ± 5.6 mmHg | maximum MAP values (increase from baseline) ([1]; IV bolus 0.34 mg/kg): 41.2 ± 7.5 mmHg

[Phe2,Dab(Lys(Lys(Ac)-[Ala6,Glu9]))8]VT [OCE-205]
approximately maximal decrease in SBF from baseline (adult male Wistar rats): ~40% | maximum increase in mean arterial blood pressure vs mean pre-test value ([2]; SC 0.1 mg/kg, at 1 h): +22 mmHg | maximum increase in mean arterial blood pressure vs mean pre-test value ([2]; SC 0.6 mg/kg, at 2 h): +22 mmHg | maximum increase in mean arterial blood pressure vs mean pre-test value ([2]; SC 4 mg/kg, at 3 and 4 h): +38 mmHg | maximum increase in mean arterial blood pressure vs mean pre-test value ([2]; SC 20 mg/kg, at 4 h): +46 mmHg | time for which increases from baseline in MAP above 20 mmHg were sustained ([1]; monkeys, SC bolus 0.01 mg/kg): 150 min | average increase in MAP between 30 min and 5 h after administration ([1]; monkeys, SC bolus 0.01 mg/kg): 20.6 mmHg | time for which increases from baseline in MAP above 20 mmHg were sustained ([1]; monkeys, SC bolus 0.05 mg/kg): 75 min | average increase in MAP between 30 min and 5 h after administration ([1]; monkeys, SC bolus 0.05 mg/kg): 18.4 mmHg | time for which increases from baseline in MAP above 20 mmHg were sustained ([1]; monkeys, SC bolus 0.5 mg/kg): 300 min | Δ MAP maintained throughout the 8 h of measurement ([1]; monkeys, SC bolus 0.5 mg/kg, on average): above 14 mmHg | average increase in MAP between 30 min and 5 h after administration ([1]; monkeys, SC bolus 0.5 mg/kg): 24.8 mmHg | maximum Δ MAP ([1]; SC bolus 0.01 mg/kg): 36.1 ± 2.1 mmHg | maximum Δ MAP ([1]; SC bolus 0.05 mg/kg): 34.9 ± 1.1 mmHg | maximum Δ MAP ([1]; SC bolus 0.5 mg/kg): 41.6 ± 6.5 mmHg | EC50 (human V1a receptors): 700 pM | activity at human V2 receptors (human V2 receptors; at clinically relevant concentrations): little to no activity | activity at the human V2 receptor (human V2 receptors; cell-based functional assays): no activity | activity at the rat V2 receptor (rat V2 receptor): no activity
